The values that follow come from PubChem BioAssay (NCI).

Common to all, as to test: inhibition of tumour cell growth, NCI panel, 48 h
For experiment [1], the system named is OVCAR-3 ovarian.
The test system of experiment [2] is ACHN renal.
Experiment [3] has as its system EKVX NSCLC.
The subject of experiment [4] is COLO 205 colon.
Experiment [5] concerns NCI-H226 lung.
For experiment [6], the system named is MCF7 breast.
The test system of experiment [7] is SNB-19 CNS.
Experiment [8] relates to SF-539 CNS.
For experiment [9], the system named is K-562 leukemia.
The subject of experiment [10] is KM12 colon.
Experiment [11] has as its system MDA-MB-435.
Experiment [12] concerns NCI-H522 lung.
Experiment [13] concerns UO-31 renal.
The test system of experiment [14] is OVCAR-4 ovarian.

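Where inhibition never reached the appropriate level, the endpoint shown equals the highest concentration tested. Otherwise, values were interpolated linearly from a five-concentration, 48-hour dose response in 96-well plates. TGI marks complete inhibition of growth.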 Some results are limits rather than exact numbers.

With `O=C(O)c1ccc2[nH]c(=O)oc2c1`, the TGI in [1], in [2], in [3], in [4], in experiment [5] and in experiment [6] was greater than 100 µM in each case. For the same molecule, the TGI in experiment [7], in experiment [8], in [9], in experiment [10] and in experiment [11] was greater than 100 µM in each case.
With `CN(C)CCSC(=Nc1ccccc1)n1cccc1`, the TGI in experiment [1] is greater than 100 µM; in experiment [2], greater than 100 µM; in experiment [12], greater than 100 µM; in experiment [4], greater than 100 µM; in experiment [5], 75.7 µM; in [7] it was greater than 100 µM. Further, the TGI in [8], in [9], in experiment [10], in [13] and in experiment [14] was greater than 100 µM each time.
On to `CC(C)C1COC(C(C)(C)C2=N[C@@H](C(C)C)CO2)=N1` (stereo partly specified), for which the TGI in [1], in [2], in experiment [3], in experiment [12], in [4] and in experiment [5] was greater than 100 µM each time. Also, the TGI in experiment [7], in experiment [8], in experiment [9], in [10], in experiment [13] and in [14] was greater than 100 µM throughout.
As to `COc1ccc(C2S/C(=C\c3ccc([N+](=O)[O-])cc3)C(=O)N2NC(=O)Cc2ccccc2)cc1` (stereo unspecified), the TGI in [2], in experiment [12], in experiment [4], in experiment [5], in [8] and in experiment [9] was greater than 100 µM throughout. Besides, the TGI in experiment [10], in [13] and in experiment [14] was greater than 100 µM each time.
As to `COc1cc2c(cc1OC)C(Cc1cc(Br)c(OC)c(OC)c1)=[N+](C)CC2`, the TGI in experiment [1], in experiment [2], in experiment [3], in [12], in experiment [4] and in [5] was greater than 100 µM throughout. In addition, the TGI in experiment [7], in experiment [8], in experiment [9], in [10], in [13] and in experiment [14] was greater than 100 µM in each case.
Turning to `O[C@]12c3ccccc3C1CCCC2N1CCOCC1` (stereo partly specified), the TGI in experiment [2], in experiment [3], in [12], in experiment [4], in [5] and in experiment [7] was greater than 100 µM each time. Further, the TGI in experiment [9], in experiment [10], in experiment [13] and in experiment [14] was greater than 100 µM throughout.
For the molecule `COc1cc(CO)cc2c1[nH]c1ccccc12`, the TGI in experiment [1] is greater than 25 µM; in experiment [2] it was greater than 25 µM; in experiment [12] it was greater than 25 µM; in [4], greater than 25 µM; in experiment [5] it was 5.27 µM; in experiment [7], greater than 25 µM. Besides, the TGI in experiment [8], in [9], in experiment [10], in experiment [13] and in experiment [14] was greater than 25 µM in each case.
Turning to `CC(=O)OCc1ncccc1C(OC(C)=O)OC(C)=O`, the TGI in experiment [1], in experiment [2], in experiment [3], in experiment [12], in [4] and in experiment [7] was greater than 100 µM each time. Further, the TGI in [8], in experiment [9], in [10], in experiment [13] and in experiment [14] was greater than 100 µM throughout.
In the case of `O=C(Cn1c2c(c3ccccc31)CCCC2)N1CCOCC1`, the TGI in experiment [1], in experiment [2], in [3], in [4], in [6] and in experiment [7] was greater than 100 µM each time. The TGI in [8], in experiment [9], in experiment [13], in experiment [11] and in experiment [14] was greater than 100 µM in each case.
`CC1(C)OC2C(O1)[C@H]1OC(C(Cl)(Cl)Cl)=N[C@H]1C(I)[C@H]2N1C(=O)c2ccccc2C1=O` (stereo partly specified): the TGI in [2] was greater than 100 µM; in [3], greater than 100 µM; in experiment [12], 74.5 µM; in experiment [4] it was greater than 100 µM; in [5] it was greater than 100 µM; in experiment [7], greater than 100 µM. In addition, the TGI in [8] is greater than 100 µM; in experiment [9], greater than 100 µM; in experiment [10] it was greater than 100 µM; in [14], 55.5 µM.
`Cc1ccc([N+](=O)[O-])cc1NC(=O)/C(CC(=O)c1sc(C(N)=S)nc1C)=N\N`: the TGI was 80.7 µM in experiment [1]; greater than 100 µM in experiment [2]; greater than 100 µM in experiment [3]; 76.4 µM in experiment [12]; greater than 100 µM in experiment [7]; greater than 100 µM in experiment [8]. Also, the TGI in experiment [9], in experiment [10], in experiment [13] and in experiment [14] was greater than 100 µM throughout.
On to `COc1ccc([C@H]2[C@@H]3CCc4ccccc4C3=NN2C(N)=S)cc1OC`, for which the TGI in [1] was greater than 100 µM; in [2], greater than 100 µM; in experiment [3], greater than 100 µM; in experiment [12], 59.7 µM; in [5], greater than 100 µM; in experiment [7], greater than 100 µM. The TGI in experiment [8] is greater than 100 µM; in experiment [9], 66.9 µM; in experiment [10], greater than 100 µM; in [13], greater than 100 µM; in [14], greater than 100 µM.
As for `NC(=S)N/N=C(/CCN1CCCC1)CC(C1=C(O)C2=CCCCC2OC1=O)c1ccccc1` (stereo unspecified), the TGI in experiment [1], in experiment [2], in [3], in experiment [12], in experiment [4] and in experiment [5] was greater than 100 µM each time. The TGI in [7], in experiment [8], in experiment [9], in experiment [10], in experiment [13] and in experiment [14] was greater than 100 µM in each case.
